Assay results: ChEMBL document CHEMBL1134574, “Synthesis and characterization of non-steroidal ligands for the glucocorticoid receptor: selective quinoline derivatives with prednisolone-equivalent functional activity” (J Med Chem, 2001)

What was measured:
[1] = target: T1, Glucocorticoid receptor (Homo sapiens, UniProt P04150); assay: Glucocorticoid-induced aromatase activity in human skin fibroblasts; format: functional
T1 sequence (P04150 whole entry): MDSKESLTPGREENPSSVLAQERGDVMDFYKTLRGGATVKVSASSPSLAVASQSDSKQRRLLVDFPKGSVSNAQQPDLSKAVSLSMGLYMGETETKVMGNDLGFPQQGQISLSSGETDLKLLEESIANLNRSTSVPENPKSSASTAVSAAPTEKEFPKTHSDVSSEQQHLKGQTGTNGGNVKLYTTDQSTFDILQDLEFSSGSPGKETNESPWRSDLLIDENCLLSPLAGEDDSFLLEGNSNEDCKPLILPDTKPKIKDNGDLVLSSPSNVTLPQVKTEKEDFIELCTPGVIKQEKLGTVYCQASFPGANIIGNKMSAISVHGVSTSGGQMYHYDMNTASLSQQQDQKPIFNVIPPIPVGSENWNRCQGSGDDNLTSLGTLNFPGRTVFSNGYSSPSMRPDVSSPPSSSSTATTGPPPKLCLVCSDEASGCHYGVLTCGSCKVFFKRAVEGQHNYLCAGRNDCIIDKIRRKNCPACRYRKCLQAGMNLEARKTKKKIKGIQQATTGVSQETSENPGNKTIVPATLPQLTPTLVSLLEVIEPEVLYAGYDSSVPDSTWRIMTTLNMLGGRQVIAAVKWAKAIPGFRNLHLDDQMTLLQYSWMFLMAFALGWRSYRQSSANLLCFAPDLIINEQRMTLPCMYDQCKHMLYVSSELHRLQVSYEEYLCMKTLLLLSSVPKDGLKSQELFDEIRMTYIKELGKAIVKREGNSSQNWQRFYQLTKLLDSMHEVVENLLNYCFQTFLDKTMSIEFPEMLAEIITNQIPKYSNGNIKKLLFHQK

[2] = target: T1, Glucocorticoid receptor; assay: Repression activity of GR ligand with interleukin-6 receptor in native cell assay using Dexamethasone was determined as maximal potency; format: functional
[3] = target: T1, Glucocorticoid receptor; assay: Transcriptional activation in CV-1 cells expressing glucocorticoid receptor; format: functional, cell-based
[4] = target: T2, Glucocorticoid receptor (Rattus norvegicus) (UniProt P06536); assay: Anti-asthmatic effect as eosinophil influx in rat lung model; format: functional
T2 sequence (whole entry): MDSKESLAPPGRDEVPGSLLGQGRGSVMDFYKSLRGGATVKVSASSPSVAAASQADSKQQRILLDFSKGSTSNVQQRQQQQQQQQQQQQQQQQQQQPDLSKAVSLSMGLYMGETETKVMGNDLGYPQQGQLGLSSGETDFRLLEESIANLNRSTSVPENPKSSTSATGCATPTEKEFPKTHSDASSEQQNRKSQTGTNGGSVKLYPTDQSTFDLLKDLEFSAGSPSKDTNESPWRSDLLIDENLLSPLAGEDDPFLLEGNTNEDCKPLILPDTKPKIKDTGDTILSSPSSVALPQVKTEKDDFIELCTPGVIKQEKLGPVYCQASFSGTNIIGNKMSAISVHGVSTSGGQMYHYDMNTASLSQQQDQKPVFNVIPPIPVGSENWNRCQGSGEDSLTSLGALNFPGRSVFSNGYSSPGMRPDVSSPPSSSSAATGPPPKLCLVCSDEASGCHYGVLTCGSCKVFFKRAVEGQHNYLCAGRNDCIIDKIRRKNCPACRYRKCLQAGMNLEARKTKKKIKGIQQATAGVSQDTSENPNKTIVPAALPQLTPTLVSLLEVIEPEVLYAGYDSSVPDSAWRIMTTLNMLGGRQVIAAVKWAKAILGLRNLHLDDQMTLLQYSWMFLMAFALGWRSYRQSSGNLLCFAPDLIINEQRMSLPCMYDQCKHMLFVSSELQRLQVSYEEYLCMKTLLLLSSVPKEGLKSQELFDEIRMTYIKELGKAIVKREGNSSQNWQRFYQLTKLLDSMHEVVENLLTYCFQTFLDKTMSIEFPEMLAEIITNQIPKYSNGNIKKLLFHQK

[5] = target: T1, Glucocorticoid receptor; assay: Binding affinity for glucocorticoid receptor
[6] = target: T1, Glucocorticoid receptor; assay: Transcriptional repression activity in HEP G2 cells expressing glucocorticoid receptor compared to Dexamethasone; format: functional, cell-based, HepG2
[7] = target: T3, Androgen receptor (Homo sapiens, UniProt P10275); assay: Binding affinity for androgen receptor
T3 sequence (P10275 whole entry): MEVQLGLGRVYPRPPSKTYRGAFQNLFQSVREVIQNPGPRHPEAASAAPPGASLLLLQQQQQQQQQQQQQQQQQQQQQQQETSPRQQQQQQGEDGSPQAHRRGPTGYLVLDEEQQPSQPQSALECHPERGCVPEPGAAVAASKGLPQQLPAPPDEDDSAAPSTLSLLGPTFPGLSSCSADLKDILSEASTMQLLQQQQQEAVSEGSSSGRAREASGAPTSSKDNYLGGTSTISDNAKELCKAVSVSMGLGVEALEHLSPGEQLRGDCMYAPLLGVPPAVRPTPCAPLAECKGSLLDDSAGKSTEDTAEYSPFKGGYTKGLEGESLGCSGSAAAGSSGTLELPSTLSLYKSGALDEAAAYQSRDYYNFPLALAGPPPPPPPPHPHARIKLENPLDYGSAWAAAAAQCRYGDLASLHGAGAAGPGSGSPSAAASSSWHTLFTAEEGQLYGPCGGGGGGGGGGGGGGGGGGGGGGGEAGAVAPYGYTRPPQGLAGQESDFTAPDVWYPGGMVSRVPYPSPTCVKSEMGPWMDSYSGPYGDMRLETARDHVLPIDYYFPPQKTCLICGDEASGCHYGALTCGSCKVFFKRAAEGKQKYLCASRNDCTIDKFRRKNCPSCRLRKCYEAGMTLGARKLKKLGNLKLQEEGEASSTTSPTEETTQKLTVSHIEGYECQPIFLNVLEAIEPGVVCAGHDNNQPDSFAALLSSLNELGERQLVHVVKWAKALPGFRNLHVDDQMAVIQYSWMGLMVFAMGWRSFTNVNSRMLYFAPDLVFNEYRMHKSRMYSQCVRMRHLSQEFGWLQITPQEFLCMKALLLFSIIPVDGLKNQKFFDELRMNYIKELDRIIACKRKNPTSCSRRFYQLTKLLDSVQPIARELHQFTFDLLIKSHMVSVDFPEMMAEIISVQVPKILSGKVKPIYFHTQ

IC50 [1]: 140 nM | IC50 [2]: 16 nM | IC50 [3]: 9 nM | ED50 [4]: 2.8 mg/kg | Ki [5]: 4 nM | IC50 [6]: 4 nM | Ki [7]: 3120 nM
Structure (SMILES): COc1cccc2c1-c1ccc3c(c1C(c1cccc(OCSC)c1)O2)C(C)=CC(C)(C)N3 (configuration not stated)
